# Target: Recombinant human HSP90a (Homo sapiens, UniProt P07900)
# Assay: radioligand filter binding test ([3H]17AAG competition) for HSP90 inhibition
# Conditions: competition with [3H]17AAG 0.08 μM, HSP90 1.5 μg/assay, 22° C., 30 min
# Text: Test Method for the Measurement of HSP90 Inhibitors
# The binding of geldanamycin or 17-allylamino-17-demethoxygeldanamycin (17AAG) to HSP90 and competitive inhibition thereof can be utilized in order to determine the inhibitory activity of the compounds according to the invention (Carreras et al. 2003, Chiosis et al. 2002).
# In the specific case, a radioligand filter binding test is used. The radioligand used here is tritium-labelled 17-allylaminogeldanamycin, [3H]17AAG. This filter binding test allows a targeted search for inhibitors which interfere with the ATP binding site.
# Recombinant human HSP90a (E. coli expressed, 95% purity);
# [3H]17AAG (17-allylaminogeldanamycin, [allylamino-2,3-^3H. Specific activity: 1.11×10^12 Bq/mmol (Moravek, MT-1717);
# HEPES filter buffer (50 mM HEPES, pH 7.0, 5 mM MgCl2, BSA 0.01%) Multiscreen FB (1 μm) filter plate (Millipore, MAFBNOB 50).
# The 96-well microtitre filter plates are firstly irrigated and coated with 0.1% of polyethylenimine.
# The test is carried out under the following conditions:
# Reaction temperature 22° C.
# Reaction time: 30 min., shaking at 800 rpm
# 50 mM HEPES HCl, pH 7.0, 5 mM MgCl2, 0.01% (w/v) of BSA
# At the end of the reaction, the supernatant in the filter plate is removed by suction with the aid of a vacuum manifold (Multiscreen Separation System, Millipore), and the filter is washed twice.
# The filter plates are then measured in a beta counter (Microbeta, Wallac) with scintillator (Microscint 20, Packard).
# “% of control” is determined from the “counts per minutes” values, and the IC-50 value of a compound is calculated therefrom.
row,Compound,IC50 [µM]
1,2-Amino-4-propylethylcarbamoylquinazoline [Compound A11],1 to 10
2,"CNC(=O)c1nc(N)nc2ccccc12 [Compound A1, 2-amino-4-methylcarbamoylquinazoline]",> 10
3,"CN(C)C(=O)c1nc(N)nc2ccccc12 [Compound A5, 2-Amino-4-dimethylcarbamoylquinazoline]",> 10
4,"CCN(C)C(=O)c1nc(N)nc2ccccc12 [Compound A6, 2-Amino-4-ethylmethylcarbamoylquinazoline]",> 10
5,"CCN(CC)C(=O)c1nc(N)nc2ccccc12 [Compound A7, 2-Amino-4-diethylcarbamoylquinazoline]",> 10
6,"CC(C)N(C)C(=O)c1nc(N)nc2ccccc12 [Compound A8, 2-Amino-4-isopropylmethylcarbamoylquinazoline]",> 10
7,"CCCN(C)C(=O)c1nc(N)nc2ccccc12 [Compound A10, 2-Amino-4-propylmethylcarbamoylquinazoline]",> 10
8,"C#CCCNC(=O)c1nc(N)nc2ccccc12 [Compound A19, 2-Amino-4-propargylmethylcarbamoylquinazoline]",> 10
9,Nc1nc(C(=O)Nc2ccccc2-c2ccccc2)c2ccccc2n1 [Compound A46],1 to 10
10,Nc1nc(C(=O)Nc2cccc3cccnc23)c2ccccc2n1 [Compound A48],1 to 10
11,Nc1nc(C(=O)Nc2cccc3c2CCCC3)c2ccccc2n1 [Compound A50],1 to 10
12,"COc1ccc(Cl)cc1CN(C)C(=O)c1nc(N)nc2ccccc12 [Compound A72, 2-Amino-4-[(3-chloro-6-methoxybenzyl)methylcarbamoyl]quinazoline]",> 10
13,"CN(Cc1ccc(F)cc1)C(=O)c1nc(N)nc2ccccc12 [Compound A73, 2-Amino-4-[(4-fluorobenzyl)methylcarbamoyl]quinazoline]",> 10
14,"CCN(CC)C(=O)c1nc(N)nc2ccc(C)cc12 [Compound A77, 2-Amino-6-methyl-4-diethylcarbamoylquinazoline]",1 to 10
15,"CCc1ccc2nc(N)nc(C(=O)N3Cc4ccc(O)cc4C3)c2c1 [Compound A95, 2-Amino-6-ethyl-4-(5-hydroxy-1,3-dihydroisoindol-2-ylcarbonyl)quinazoline]",1 to 10
16,"CCc1ccc2nc(N)nc(C(=O)N3Cc4ccc(Br)cc4C3)c2c1 [Compound A96, 2-Amino-6-ethyl-4-(5-bromo-1,3-dihydroisoindol-2-ylcarbonyl)quinazoline]",0.01 to 1
17,"CCc1ccc2nc(N)nc(C(=O)N3Cc4ccccc4C3)c2c1 [Compound A97, 2-Amino-6-ethyl-4-(1,3-dihydroisoindol-2-ylcarbonyl)quinazoline]",0.01 to 1
18,"CCc1ccc2nc(N)nc(C(=O)N(CC)CC)c2c1 [Compound A98, 2-Amino-6-ethyl-4-diethylcarbamoylquinazoline]",1 to 10
19,"CC(C)c1ccc2nc(N)nc(C(=O)N3Cc4ccc(Br)cc4C3)c2c1 [Compound A117, 2-Amino-6-isopropyl-4-(5-bromo-1,3-dihydroisoindol-2-ylcarbonyl)quinazoline]",1 to 10
20,"CC(C)c1ccc2nc(N)nc(C(=O)N3Cc4ccccc4C3)c2c1 [Compound A118, 2-Amino-6-isopropyl-4-(1,3-dihydroisoindol-2-ylcarbonyl)quinazoline]",1 to 10
21,"Nc1nc(C(=O)N2Cc3ccccc3C2)c2cc(Br)ccc2n1 [Compound A125, 2-Amino-6-bromo-4-(1,3-dihydroisoindol-2-ylcarbonyl)quinazoline]",1 to 10
22,"CCN(CC)C(=O)c1nc(N)nc2ccc(-c3ccccc3)cc12 [Compound A138, 2-Amino-6-phenyl-4-diethylcarbamoylquinazoline]",1 to 10
23,"CCNC(=O)c1ccc2nc(N)nc(C(=O)N(CC)CC)c2c1 [Compound A140, 2-Amino-6-ethylcarbamoyl-4-diethylcarbamoylquinazoline]",> 10
24,Nc1nc(C(=O)N2Cc3ccccc3C2)c2cc(-c3ccccc3OC(F)(F)F)ccc2n1 [Compound A240],0.01 to 1
25,Nc1nc(C(=O)N2Cc3ccccc3C2)c2cc(-c3ccccc3C(F)(F)F)ccc2n1 [Compound A262],0.01 to 1
26,NC(=O)c1ccccc1-c1ccc2nc(N)nc(C(=O)N3Cc4ccccc4C3)c2c1 [Compound A310],0.01 to 1
27,N#Cc1ccccc1-c1ccc2nc(N)nc(C(=O)N3Cc4ccccc4C3)c2c1 [Compound A328],0.01 to 1
28,"Nc1nc(C(=O)N2Cc3ccccc3C2)c2cc(-c3ccccc3O)ccc2n1 [Compound A335, [2-amino-6-(2-hydroxyphenyl)quinazolin-4-yl]-(1,3-dihydroisoindol-2-yl)methanone]",0.01 to 1

row,Compound,IC50 [µM]
1,N#CCc1ccccc1-c1ccc2nc(N)nc(C(=O)N3Cc4ccccc4C3)c2c1 [Compound A344a],0.01 to 1
2,"N#CCc1cccc(-c2ccc3nc(N)nc(C(=O)N4Cc5ccccc5C4)c3c2)c1 [Compound A919, 2-Amino-6-(3-cyanomethylphenyl)-4-(1,3-dihydroisoindol-2-ylcarbonyl)quinazoline]",0.01 to 1
3,"Nc1nc(C(=O)N2Cc3ccccc3C2)c2cc(-c3cc4ccccc4o3)ccc2n1 [Compound A921, 2-Amino-6-(benzofuran-2-yl)-4-(1,3-dihydroisoindol-2-ylcarbonyl)quinazoline]",1 to 10
4,"Nc1nc(C(=O)N2Cc3ccccc3C2)c2cc(-c3ccncc3)ccc2n1 [Compound A922, 2-Amino-6-(pyridin-4-yl)-4-(1,3-dihydroisoindol-2-ylcarbonyl)quinazoline]",0.01 to 1
5,"Nc1nc(C(=O)N2Cc3ccccc3C2)c2cc(-c3ccncc3)ccc2n1 [Compound A923, 2-Amino-6-(pyridin-4-yl)-4-(1,3-dihydroisoindol-2-ylcarbonyl)quinazoline]",1 to 10
6,"CCc1ccccc1-c1ccc2nc(N)nc(C(=O)N3Cc4ccccc4C3)c2c1 [Compound A924, 2-Amino-6-(2-ethylphenyl)-4-(1,3-dihydroisoindol-2-ylcarbonyl)quinazoline]",0.01 to 1
7,"Nc1nc(C(=O)N2Cc3ccccc3C2)c2cc(-c3cccc(O)c3)ccc2n1 [Compound A925, 2-Amino-6-(3-hydroxyphenyl)-4-(1,3-dihydroisoindol-2-ylcarbonyl)quinazoline]",1 to 10
8,CCN(CC)C(=O)c1cccc(-c2ccc3nc(N)nc(C(=O)N4Cc5ccccc5C4)c3c2)c1 [Compound A931],0.01 to 1
9,CNCc1ccccc1-c1ccc2nc(N)nc(C(=O)N3Cc4ccccc4C3)c2c1 [Compound A933],0.01 to 1
10,NCc1ccccc1-c1ccc2nc(N)nc(C(=O)N3Cc4ccccc4C3)c2c1 [Compound A936],1 to 10
11,Nc1nc(C(=O)N2Cc3ccccc3C2)c2cc(N3CCN(C(=O)OCc4ccccc4)CC3)ccc2n1 [Compound A939],0.01 to 1
12,CN(C)CCCNc1ccc2nc(N)nc(C(=O)N3Cc4ccccc4C3)c2c1 [Compound A940],> 10
13,CN1CCN(c2ccc3nc(N)nc(C(=O)N4Cc5ccccc5C4)c3c2)CC1 [Compound A941],1 to 10
14,Nc1nc(C(=O)N2Cc3ccccc3C2)c2cc(Oc3ccccc3)ccc2n1 [Compound A946],0.01 to 1
15,Nc1nc(C(=O)N2Cc3ccccc3C2)c2cc(NC3CCCCC3)ccc2n1 [Compound A949],0.01 to 1
16,Nc1nc(C(=O)N2Cc3ccccc3C2)c2cc(NCc3ccccc3)ccc2n1 [Compound A950],1 to 10
17,Nc1nc(C(=O)N2Cc3ccccc3C2)c2cc(NC3CCC(O)CC3)ccc2n1 (stereo not shown) [Compound A951],1 to 10
18,"Nc1nc(C(=O)N2Cc3ccccc3C2)c2cc(C#CCO)ccc2n1 [Compound A964, 2-amino-6-(3-hydroxyprop-1-ynyl)-4-(1,3-dihydroisoindol-2-ylcarbonyl)quinazoline]",0.01 to 1
19,"Nc1nc(C(=O)N2Cc3ccccc3C2)c2cc(-c3ccccc3C=O)ccc2n1 [Compound A969, 2-[2-amino-4-(1,3-dihydroisoindole-2-carbonyl)quinazolin-6-yl]benzaldehyde]",0.01 to 1
20,"CN1CCN(Cc2ccccc2-c2ccc3nc(N)nc(C(=O)N4Cc5ccccc5C4)c3c2)CC1 [Compound A970, {2-amino-6-[2-(4-methylpiperazin-1-ylmethyl)phenyl]quinazolin-4-yl}-(1,3-dihydroisoindol-2-yl)methanone]",0.01 to 1
21,Nc1nc(C(=O)N2Cc3ccccc3C2)c2cc(-c3ccccc3CN3CCNCC3)ccc2n1 [Compound A971],0.01 to 1
22,Nc1nc(C(=O)N2Cc3ccccc3C2)c2cc(-c3ccccc3CNCCO)ccc2n1 [Compound A972],0.01 to 1
23,CN(C)CCNCc1ccccc1-c1ccc2nc(N)nc(C(=O)N3Cc4ccccc4C3)c2c1 [Compound A973],0.01 to 1
24,Nc1nc(C(=O)N2Cc3ccccc3C2)c2cc(-c3ccccc3CN3CCOCC3)ccc2n1 [Compound A974],0.01 to 1
25,CN(C)Cc1ccccc1-c1ccc2nc(N)nc(C(=O)N3Cc4ccccc4C3)c2c1 [Compound A975],0.01 to 1
26,COCCNCc1ccccc1-c1ccc2nc(N)nc(C(=O)N3Cc4ccccc4C3)c2c1 [Compound A976],0.01 to 1
27,Nc1nc(C(=O)N2Cc3ccccc3C2)c2cc(-c3ccccc3CNC3CCC(O)CC3)ccc2n1 (stereo not shown) [Compound A977],1 to 10

# From patent US8501754B2, “Quinazolinamide derivatives” (MERCK PATENT GmbH, priority 2007, dated 2013)
